Source: patent US20040242660A1, “Substituted oxazolidinones for combinational therapy” (priority 2001, published 2004)
Read-outs that look alike come from different tables or passages of the source.

How the values were obtained:
[1] = system: thrombus formation in an arteriovenous shunt; experiment: Arteriovenous shunt model (rat), antithrombotic effect; assay type: in vivo
Procedure: b.1) Arteriovenous Shunt Model (Rat) Fasting male rats (strain: HSD CPB:WU) weighing 200-250 g were anesthetized with a Rompun/Ketavet solution (12 mg/kg/50 mg/kg). Thrombus formation was induced in an arteriovenous shunt by a method based on that described by Christopher N. Berry et al., Br. J. Pharmacol. (1994), 113, 1209-1214. For this purpose, the left jugular vein and the right carotid artery were exposed. An extracorporeal shunt was formed between the two vessels using a 10 cm-long polyethylene tube (PE 60). This polyethylene tube was secured in the middle by tying in a further 3 cm-long polyethylene tube (PE 160) which contained a roughened nylon thread forming a loop to produce a thrombogenic surface. The extracorporeal circulation was maintained for 15 minutes. The shunt was then removed and the nylon thread with the thrombus was immediately weighed. The blank weight of the nylon thread had been found before the start of the experiment. The test substances were administered either intravenously through the tail vein or orally by gavage to conscious animals before setting up the extracorporeal circulation.

human factor Xa (FXa) = human factor Xa (FXa) (Homo sapiens, UniProt P00742); experiment: Measurement of factor Xa inhibition (chromogenic substrate); assay type: biochemical
Procedure: a.1) Measurement of Factor Xa Inhibition
In this case, factor Xa eliminates p-nitroaniline from the chromogenic substrate.
The test substances were dissolved in various concentrations in DMSO and incubated with human FXa (0.5 nmol/l dissolved in 50 mmol/l tris buffer [C,C,C-tris(hydroxymethyl)-aminomethane], 150 mmol/l NaCl, 0.1% BSA (bovine serum albumine), pH=8,3) at 25° C. for 10 minutes. Pure DMSO serves as control.

[2] = system: thrombus in the carotid artery of rats; experiment: Rat thrombosis model (FeCl3-induced carotid artery thrombus), combinations; assay type: in vivo; settings: 1 mg/kg of each active ingredient; for Reduction in thrombus weight after oral treatment: 10 rats per group; for Reduction in thrombus weight after oral treatment / Statistical significance of the reduction in thrombus weight (Student's t-test): oral; for Statistical significance of the reduction in thrombus weight (Student's t-test): p<0.05 regarded as significant; for Antithrombotic effect: single dosage or combination
Procedure: a) In vivo Investigations in a Rat Thrombosis Model The carotid artery of rats (HSD CPB:WU, Harlan Winkelmann) was exposed under anesthesia. A piece of filter paper impregnated with an aqueous 10% strength FeCl3 solution (dissolved in 1N aqueous hydrochloric acid) was cautiously pushed underneath the exposed vessel in accordance with the method described by Kurz et al. […] After 3 minutes, the piece of filter paper was removed. The carotid artery was removed after 15 minutes, and the thrombus was detached and immediately weighed. […] The animals in the control group had been treated with the corresponding solvent. The statistical significance was calculated using Student's t-test. Values with p<0.05 are regarded as a statistically significant effect (Medical Statistics, M J Campbell, […], Second Edition, John Wiley & Sons).

[3] = intravenous administration, read-out: ED50 [mg/kg] i.v.
[4] = oral administration, read-out: ED50 [mg/kg] p.o.

human factor Xa (FXa), sequence (P00742 235-488 limits assumed): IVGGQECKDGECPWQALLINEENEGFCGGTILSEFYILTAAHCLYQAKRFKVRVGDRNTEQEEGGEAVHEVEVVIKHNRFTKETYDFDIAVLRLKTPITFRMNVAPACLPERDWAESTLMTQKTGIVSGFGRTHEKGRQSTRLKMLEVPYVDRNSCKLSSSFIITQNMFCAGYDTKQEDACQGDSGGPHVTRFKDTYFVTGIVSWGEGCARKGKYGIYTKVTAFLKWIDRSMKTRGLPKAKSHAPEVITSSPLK
human factor Xa (FXa), sequence (P00742 41-179 partner limits assumed): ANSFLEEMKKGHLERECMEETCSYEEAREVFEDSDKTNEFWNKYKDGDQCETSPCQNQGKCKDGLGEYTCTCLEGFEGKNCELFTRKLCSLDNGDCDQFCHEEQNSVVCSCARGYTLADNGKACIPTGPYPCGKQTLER

In the case of `Cc1cc(N2CC(CNC(=O)c3ccc(Cl)s3)OC2=O)ccc1N1CCOCC1=O` (centres unmarked) [Example 115, 5-Chloro-N-({3-[3-methyl-4-(3-oxo-4-morpholinyl)phenyl]-2-oxo-1,3-oxazolidin-5-yl}methyl)-2-thiophenecarboxamide], the ED50 [1, 3] is reported as 3 mg/kg.
`O=C(NC[C@H]1CN(c2ccc(N3CCCC3=O)cc2)C(=O)O1)c1ccc(Cl)s1` [Example 17, 5-Chloro-N-({(5S)-2-oxo-3-[4-(2-oxo-1-pyrrolidinyl)phenyl]-1,3-oxazolidin-5-yl}methyl)-2-thiophenecarboxamide] showed an ED50 [1, 3] of 6 mg/kg.
`O=C(NCC1CN(c2ccc(N3CCOCC3=O)c(C(F)(F)F)c2)C(=O)O1)c1ccc(Cl)s1` (centres unmarked) [Example 114, 5-Chloro-N-({2-oxo-3-[4-(3-oxo-4-morpholinyl)-3-(trifluoromethyl)phenyl]-1,3-oxazolidin-5-yl}methyl)-2-thiophenecarboxamide] was tested, and the ED50 [1, 3] was 3 mg/kg.
In the case of `O=C(NC[C@H]1CN(c2ccc(N3CCCCC3=O)cc2)C(=O)O1)c1ccc(Cl)s1` [Example 162, 5-Chloro-N-({(5S)-2-oxo-3-[4-(2-oxo-1-piperidinyl)phenyl]-1,3-oxazolidin-5-yl}-methyl)-2-thiophenecarboxamide], the ED50 [1, 3] is reported as 3 mg/kg and the IC50 (human factor Xa (FXa); factor Xa inhibition) is reported as 2.8 nM.
`Nc1cc(N2CC(CNC(=O)c3ccc(Cl)s3)OC2=O)ccc1N1CCOCC1=O` (centres unmarked) [Example 123, N-({3-[3-Amino-4-(3-oxo-4-morpholinyl)phenyl]-2-oxo-1,3-oxazolidin-5-yl}-methyl)-5-chloro-2-thiophenecarboxamide] was tested, and the ED50 [1, 4] was 3 mg/kg.
`O=C(NC[C@H]1CN(c2ccc(N3CCOCC3)c(F)c2)C(=O)O1)c1ccc(Cl)s1` [Example 1, 5-chloro-N-{[(5S)-3-(3-fluoro-4-morpholinophenyl)-2-oxo-1,3-oxazolidin-5-yl]methyl}-2-thiophenecarboxamide] was tested, and the ED50 [1, 3] was 10 mg/kg.
`Cc1ccc(C(=O)NCC2CN(c3ccc(N4CCCC4=O)cc3)C(=O)O2)s1` (centres unmarked) [Example 42, 5-Methyl-N-({2-oxo-3-[4-(2-oxo-1-pyrrolidinyl)phenyl]-1,3-oxazolidin-5-yl}methyl)-2-thiophenecarboxamide] gave an IC50 (human factor Xa (FXa); factor Xa inhibition) of 160 nM.
For `COC(=O)[C@H](c1ccccc1Cl)N1CCc2sccc2C1` [Clopidogrel, clopidogrel, reference compound], the “Reduction in thrombus weight after oral treatment” value [2] was 28%, the “Statistical significance of the reduction in thrombus weight (Student's t-test)” value [2] was “no effect (p > 0.05)” and the “Antithrombotic effect” value [2] was “inactive”.
In the case of `O=C(NCC1CN(c2ccccc2)C(=O)O1)c1ccc(Cl)s1` (centres unmarked) [Example 96, 5-Chloro-N-[(2-oxo-3-phenyl-1,3-oxazolidin-5-yl)methyl]-2-thiophenecarboxamide], the IC50 (human factor Xa (FXa); factor Xa inhibition) is reported as 2000 nM.
`CN1C(=O)COc2cc(N3C[C@H](CNC(=O)c4ccc(Cl)s4)OC3=O)ccc21` [Example 51] gave an IC50 (human factor Xa (FXa); table of Examples 48-58) of 1190 nM.
`O=C(NCC1CN(c2ccc(N3CCCC(O)C3)c(F)c2)C(=O)O1)c1ccc(Cl)s1` (centres unmarked) [Example 134] gave an IC50 (human factor Xa (FXa)) of 480 nM.
With `O=C(NCC1CN(c2ccc(N3CCOCC3=O)c(F)c2)C(=O)O1)c1ccc(Cl)s1` (centres unmarked) [Example 95, 5-Chloro-N-({3-[3-fluoro-4-(3-oxo-4-morpholinyl)phenyl]-2-oxo-1,3-oxazolidin-5-yl}methyl)-2-thiophenecarboxamide] the ED50 [1, 3] was 3 mg/kg.
For `O=C(NC[C@H]1CN(c2ccc(N3CCCC3)cc2)C(=O)O1)c1ccc(Cl)s1` [Example 18, 5-Chloro-N-({(5S)-2-oxo-3-[4-(1-pyrrolidinyl)phenyl]-1,3-oxazolidin-5-yl}methyl)-2-thiophenecarboxamide], the IC50 (human factor Xa (FXa); factor Xa inhibition) was 40 nM.
Compound `O=C(NC[C@H]1CN(c2ccc3c(c2)OCc2nccn2-3)C(=O)O1)c1ccc(Cl)s1` [Example 53] has an IC50 (human factor Xa (FXa); table of Examples 48-58) of 740 nM.
In the case of `O=C(NCC1CN(c2ccc(C3CCCCC3)cc2)C(=O)O1)c1ccc(Cl)s1` (centres unmarked) [Example 131], the IC50 (human factor Xa (FXa)) is reported as 850 nM.
`CC(=O)NCc1ccc(N2CC(CNC(=O)c3ccc(Cl)s3)OC2=O)cc1` (centres unmarked) [Example 153, N-[(3-{4-[(Acetylamino)methyl]phenyl}-2-oxo-1,3-oxazolidin-5-yl)methyl]-5-chloro-2-thiophenecarboxamide] gave an IC50 (human factor Xa (FXa); factor Xa inhibition) of 600 nM.
`O=C(NC[C@H]1CN(c2ccc(N3CCOCC3)c(Cl)c2)C(=O)O1)c1ccc(Cl)s1` [Example 37, 5-Chloro-N-{[(5S)-3-(3-chloro-4-morpholinophenyl)-2-oxo-1,3-oxazolidin-5-yl]methyl}-2-thiophenecarboxamide] was tested, and the IC50 (human factor Xa (FXa); factor Xa inhibition) was 33 nM.
Work on `NCC(=O)Nc1ccc(N2CC(CNC(=O)c3ccc(Cl)s3)OC2=O)cc1` (centres unmarked) [Example 150, 5-Chloro-N-({3-[4-(glycylamino)phenyl]-2-oxo-1,3-oxazolidin-5-yl}methyl)-2-thiophenecarboxamide] yielded an IC50 (human factor Xa (FXa); factor Xa inhibition) of 2000 nM.
`O=C(NCC1CN(c2ccc(N3CCCC3=O)cc2)C(=O)O1)c1ccc(Br)s1` (centres unmarked) [Example 43, 5-Bromo-N-({2-oxo-3-[4-(2-oxo-1-pyrrolidinyl)phenyl]-1,3-oxazolidin-5-yl}methyl)-2-thiophenecarboxamide] gave an IC50 (human factor Xa (FXa); factor Xa inhibition) of 14 nM.
With `O=C(NC[C@H]1CN(c2ccc(N3CCOCC3=O)c(F)c2)C(=O)O1)c1ccc(Br)s1` [Example 127] the IC50 (human factor Xa (FXa)) was 0.7 nM.
With `O=C(NC[C@H]1CN(c2ccc(N3CCOCC3=O)cc2)C(=O)O1)c1ccc(Cl)s1` [Example 44, 5-Chloro-N-({(5S)-2-oxo-3-[4-(3-oxo-4-morpholinyl)phenyl]-1,3-oxazolidin-5-yl}methyl)-2-thiophenecarboxamide] the ED50 [1, 4] was 3 mg/kg, the “Reduction in thrombus weight after oral treatment” value [2] was 22% and the “Statistical significance of the reduction in thrombus weight (Student's t-test)” value [2] was “no effect (p > 0.05)”. The “Antithrombotic effect” value [2] was “inactive”.
For `O=C(NC[C@H]1CN(c2ccc(N3CCCC3=O)cc2)C(=O)O1)c1ccc(Br)s1` [Example 56], the IC50 (human factor Xa (FXa); table of Examples 48-58) was 4 nM.
For `CC1Oc2cc(N3C[C@H](CNC(=O)c4ccc(Cl)s4)OC3=O)ccc2N(C)C1=O` (some centres unmarked) [Example 50], the IC50 (human factor Xa (FXa); table of Examples 48-58) was 1150 nM.
For `O=C(NCC1CN(c2ccc(S(=O)(=O)N3CCCC3)cc2)C(=O)O1)c1ccc(Cl)s1` (centres unmarked) [Example 167, 5-Chloro-N-({2-oxo-3-[4-(1-pyrrolidinylsulfonyl)phenyl]-1,3-oxazolidin-5-yl}-methyl)-2-thiophenecarboxamide], the IC50 (human factor Xa (FXa); factor Xa inhibition) was 500 nM.
`N#Cc1cc(N2C[C@H](CNC(=O)c3ccc(Cl)s3)OC2=O)ccc1N1CCCC1` [Example 54] was tested, and the IC50 (human factor Xa (FXa); table of Examples 48-58) was 130 nM.
`O=C(NCC1CN(c2ccc(N3CCC(O)C3)c(F)c2)C(=O)O1)c1ccc(Cl)s1` (centres unmarked) [Example 133] showed an IC50 (human factor Xa (FXa)) of 62 nM.
